According to patent US5358971A, “Substituted 2-aminotetralins” (Whitby Research, Inc., priority 1993, dated 1994):
Where a name gives a salt, the structure may show the parent alone.

Tests used:
dopamine D1 receptors = dopamine D1 receptors (Bos taurus, UniProt Q95136); test: Radioligand binding to dopamine D1 receptors ([3H]-SCH23390, bovine caudate nuclei); settings: 15 minutes at 37° C., two-site fitted model; for Ki: read-out: D1 (pK1) (converted)
Protocol: (§1) Radioligand Binding Experiments (Dopamine Receptor Affinity Information; pK1 values):
(§2) Bovine brains were obtained fresh from a local slaughterhouse. The caudate nuclei were dissected out and homogenized in Buffer A (50 mM Tris; 1 mM Na2 -EDTA; 5 mM KCl; 1 mM MgCl2; 2 mM CaCl2; pH 7.4) using a Brinkmann Polytron. The homogenate was centrifuged at 40,000×g for 20 minutes and washed once. The pellet was resuspended in Buffer A, incubated at 37° C. for 15 minutes, then centrifuged. The pellet was washed once more, resuspended to a protein concentration of 5-10 mg/ml in Buffer A and frozen at -70° C. until used.
(§3) To test binding of the compounds to dopamine receptors, the following tritiated drugs were used as radioligands for each of the receptors tested: [^3 H]-Spiperone 21-24 Ci/mmol for D2 receptors and [^3 H]-SCH23390 75-85 Ci/mmol for D1 receptors. The radioligands were incubated with various concentrations of competing drug and bovine membranes for the following times: 75 minutes at room temperature for D2 receptors, and 15 minutes at 37° C. for D1 receptors. Specific binding was defined using 1 μM butaclamol (D2) and 1 μM SCH 23390 (D1). In addition, the D2 assays contained 30 nM ketanserin in order to block the binding of [^3 H]-spiperone to 5-HT2 receptors.
(§4) The assays were terminated by filtration using a 24-port Brandell cell harvester over filters that had been previously soaked in 0.1% polyethyleneimine, and the filters were washed three times by filtration of cold buffer. The filters were then placed in 5 ml scintillation vials to which 4 ml of Beckman Ready-Protein was then added, and each vial was counted for 2 minutes in a Beckman 3801 scintillation counter calibrated for conversion of cpm to dpm. Binding data were analyzed using the Ligand program of Munson and Rodbard (1980). The results are presented as pK1 values in a two-site fitted model.
as §2, with “To test binding to dopamine receptors, the bovine caudate nuclei assay was employed. Bovine” for “Bovine”, “mMMgCl2;” for “mM MgCl2;”, “Brinkman” for “Brinkmann”
(§5) The following tritiated drugs were used as radioligands for each of the receptors tested: [^3 H]-Spiperone 21-24 Ci/mmol for D2 receptors and [^3 H]-SCH23390 75-85 Ci/mmol for D1 receptors. The radioligands were incubated with various concentrations of competing drug and the appropriate membrane source for periods of time as follows: 75 minutes at room temperature for D2 receptors or 15 minutes at 37° C. for D1 receptors. Specific binding was defined using 1 μM butaclamol (D2) or 1 μM SCH23390 (D1). In addition, the D2 assays contained 30nM ketaserin in order to block the binding of ^3 H-spiperone to 5HT2 receptors.
as §4, with “as Ki” for “as pK1”, “values if the data were best fitted to a one-site model, or as Kh and K1 values if” for “values in”, “two-site model produced the better fit.” for “two-site fitted model.”

dopamine D2 receptors = dopamine D2 receptors (Bos taurus, UniProt P20288); test: Radioligand binding to dopamine D2 receptors ([3H]-Spiperone, bovine caudate nuclei); settings: for D2 (pK1) / Ki: bovine caudate nuclei, [3H]-Spiperone, 75 minutes at room temperature, 30 nM ketanserin, two-site fitted model; for Ki: read-out: D2 (pK1) (converted)
Chain of dopamine D2 receptors (P20288 whole entry): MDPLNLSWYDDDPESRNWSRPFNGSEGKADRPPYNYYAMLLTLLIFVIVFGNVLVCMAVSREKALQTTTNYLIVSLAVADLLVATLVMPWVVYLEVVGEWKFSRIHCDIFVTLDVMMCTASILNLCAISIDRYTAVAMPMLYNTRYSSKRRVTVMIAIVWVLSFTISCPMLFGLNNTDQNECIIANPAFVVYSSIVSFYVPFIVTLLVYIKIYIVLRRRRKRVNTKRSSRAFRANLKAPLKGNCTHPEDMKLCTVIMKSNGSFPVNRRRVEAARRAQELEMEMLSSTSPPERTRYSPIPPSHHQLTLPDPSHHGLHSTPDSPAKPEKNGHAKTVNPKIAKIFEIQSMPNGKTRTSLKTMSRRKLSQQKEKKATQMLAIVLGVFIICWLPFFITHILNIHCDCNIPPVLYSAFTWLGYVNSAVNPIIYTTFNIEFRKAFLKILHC
Protocol: as §1, §2, §3, §4
as §2, with “To test binding to dopamine receptors, the bovine caudate nuclei assay was employed. Bovine” for “Bovine”, “mMMgCl2;” for “mM MgCl2;”, “Brinkman” for “Brinkmann”
as §5
as §4, with “as Ki” for “as pK1”, “values if the data were best fitted to a one-site model, or as Kh and K1 values if” for “values in”, “two-site model produced the better fit.” for “two-site fitted model.”

dopamine D2 = settings: reference compound, in words; cited from earlier work
dopamine receptor = settings: prior art, in words; cited from earlier work

Chain of dopamine D1 receptors (Q95136 whole entry): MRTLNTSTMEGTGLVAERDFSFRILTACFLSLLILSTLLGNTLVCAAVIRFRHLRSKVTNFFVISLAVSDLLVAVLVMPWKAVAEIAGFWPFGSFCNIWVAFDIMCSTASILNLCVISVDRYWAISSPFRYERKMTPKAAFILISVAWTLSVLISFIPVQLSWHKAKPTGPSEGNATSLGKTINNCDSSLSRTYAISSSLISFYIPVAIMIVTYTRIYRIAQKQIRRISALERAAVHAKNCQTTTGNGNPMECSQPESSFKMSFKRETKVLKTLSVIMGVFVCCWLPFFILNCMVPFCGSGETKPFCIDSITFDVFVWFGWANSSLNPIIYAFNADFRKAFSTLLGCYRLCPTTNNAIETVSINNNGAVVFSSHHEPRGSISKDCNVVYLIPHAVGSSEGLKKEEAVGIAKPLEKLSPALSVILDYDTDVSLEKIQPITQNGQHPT

Row | Compound | Ki (dopamine D1 receptors) [nM] | Ki (dopamine D2 receptors) [nM] | other results
1 | CCCN(CCC1OCc2ccccc21)C1CCc2c(O)cccc2C1 (stereo not shown) [Example 46, 6-[[2-(1,3-dihydro-1-isobenzofuranyl)-ethyl]propylamino]-5,6,7,8-tetrahydro-1-naphthalenol] |  |  | D1 (pK1) (dopamine D1 receptors): 5.14; D2 (pK1) (dopamine D2 receptors): 6.77
2 | CCCN(CC[C@H]1OC(=O)c2ccccc21)[C@H]1CCc2c(O)cccc2C1 [Example 36, (S,R)-3-[2-[propyl(1,2,3,4-tetrahydro-5-hydroxy-2-naphthalenyl)amino]ethyl]-l(3H)-isobenzofuranone] |  |  | D1 (pK1) (dopamine D1 receptors): 6.56; D2 (pK1) (dopamine D2 receptors): 6.85
3 | CCCN(CCc1cccs1)C1CCc2c(O)cccc2C1 (racemic) [Example N-0437, reference compound] |  |  | dopamine D2 agonist (dopamine D2): potent dopamine D2 agonist; D2 (pK1) (dopamine D2 receptors): 6.96
4 | CCCN(CCOc1ccccc1)C1CCc2ccc(O)cc2C1 (stereo not shown) [Example 39, 5,6,7,8-tetrahydro-6-[(2-phenoxylethyl)-propylamino]-3-naphthalenol] | 12300 | 813 | 
5 | CCCN(CCOc1cccc(F)c1)C1CCc2c(O)cccc2C1 (stereo not shown) [Example 45, 5,6,7,8-tetrahydro-6-[[2(3-fluorophenoxy)ethyl]propylamino]-1-naphthalenol] | 10500 | 316 | 
6 | CN1CCc2cccc3c2[C@H]1Cc1ccc(O)c(O)c1-3 [apomorphine] |  |  | dopaminergic activity (dopamine receptor): high activity

Further lines, with some results ahead:

Row | Ki (dopamine D1 receptors) [nM] | Ki (dopamine D2 receptors) [nM] | Compound | other results
7 | 1230 | 123 | CCCN(CC[C@@H]1OC(=O)c2ccccc21)[C@H]1CCc2c(O)cccc2C1 [Example 37, (S,S)-3-[2-[propyl(1,2,3,4-tetrahydro-5-hydroxy-2-naphthalenyl)amino]ethyl]-1(3H)-isobenzofuranone] | 
8 | 1380 | 339 | CCCN(CCC(c1ccccc1)c1ccccc1)C1CCc2c(O)cccc2C1 (stereo not shown) [Example 14, 2-[N-n-propyl,N-3,3-diphenyipropylamino]-5-hydroxytetralin] | 
9 | 4170 | 2630 | CCCN(CCOc1ccc2ccccc2c1)C1CCc2c(O)cccc2C1 (stereo not shown) [Example 32, 5,6,7,8-tetrahydro-6-[(2-(2-naphthalenyloxy)ethyl]propylamino]-1-naphthalenol] | 
10 | 1290 | 79.4 | CCCN(CCSc1ccccc1)C1CCc2c(O)cccc2C1 (stereo not shown) [Example 34, 5,6,7,8-tetrahydro-6-[(2-thiophenoxyethyl)propylamino]-1-naphthalenol] | 
11 | 2140 | 66.1 | CCCN(CCC1OC(=O)c2ccccc21)C1CCc2c(O)cccc2C1 (stereo not shown) [Example 9, 3-[2-[propyl(1,2,3,4-tetrahydro-5-hydroxy-2-naphthalenyl)amino]ethyl]-l(3H)-isobenzofuranone] | 
12 | 13500 | 1150 | CCCN(CCOc1cccc2ccccc12)C1CCc2c(O)cccc2C1 (stereo not shown) [Example 48, 5,6,7,8-tetrahydro-6-[[2-(1-naphthalenyloxy)ethyl]propylamino]-1-naphthalenol hydrochloride] | 
13 | 9120 | 46.8 | CCCN(CC(c1ccccc1)c1ccccc1)C1CCc2c(O)cccc2C1 (stereo not shown) [Example 12, 2-[N-n-propyl,N-2,2-diphenylethylamino]-5-hydroxytetralin] | 
14 | 8710 | 170 | CCCN(CCOc1ccccc1)C1CCc2c(O)cccc2C1 (single isomer, unassigned; (-)) [Example 30, (-)-5,6,7,8-tetrahydro-6-[(2-phenoxyethyl)propylamino]-1-naphthalenol] | 
15 | 12000 | 126 | CCCN(CCOc1ccccc1)C1CCc2c(O)cccc2C1 (stereo not shown) [Example 2, 2-[N-n-propyl,N-2-(phenyloxy)ethylamino]-5-hydroxytetralin] | affinity for binding to dopamine D2 receptors (dopamine D2 receptors; in words): high affinity; selectivity for binding to dopamine D2 receptors (dopamine D2 receptors; in words): high affinity and selectivity
